Results published in publication PMC6926618, “Modification of Polyacrylonitrile Fibers by Coupling to Thiosemicarbazones” (Materials, 2019).
“And” between values parts separate entries of the source, which are not always exact repeats. Equal values may be shown once.

System: not listed separately
Assay: Potentiometric titration, stability constant of complex with Cu^2+
Assay type: physicochemical
Details: 25 °C, water with 20% DMSO, KNO3
Description: (§1) The stability constant of the complex was tested using a Metrohm 877 Titrino plus automatic potentiometric titrator (Metrohm, Herisau, Switzerland). The titration temperature was maintained at 25 ± 0.5 °C with pH range of 2–11. The titration solution was water solution with 20% DMSO, and the ionic strength I = […] KNO3 (aq). The initial concentration was [L] = 0.005–0.0001 mol·L^−1, [HNO3] = 0.002 mol·L^−1, [KNO3] = 0.10 mol·L^−1, and [M] = 0.0001 mol·L^−1. The total volume was 25 mL, the titration volume was 0.004 mL·D^−1, and the response time was at least 1 min. The titration was triplicate and the titration data were fitted using Hyperquad 2013 software, where the ion product of H2O was pKw = 13.85 [18]. The distribution curve of species with pH was plotted using HySS 2009 software (Version 2009, Hyperquad Co. Ltd., London, UK). Three metal ions, Cu^2+, Zn^2+, and Mn^2+, were chosen as model ions in this work. The stability constants of the thiosemicarbazone compounds forming complexes with the above three metal ions and the species distribution under different pH conditions were investigated in detail.

Row | logKCu^2+, n = 1 | Structure (SMILES)
1 | 19.15 ± 0.11 M^−1 | Cc1ccc(O)c(/C=N/NC(N)=S)c1 [DY1]
2 | 18.83 ± 0.14 M^−1 | NC(=S)N/N=C/c1cc(O)ccc1O [DY2]
3 | 19.10 ± 0.15 M^−1 | NC(=S)N/N=C/c1cc([N+](=O)[O-])ccc1O [DY3]
4 | 18.95 ± 0.10 M^−1 | COc1ccc(/C=N/NC(N)=S)c(O)c1 [DY4]
5 | 19.43 ± 0.22 M^−1 | NC(=S)N/N=C/c1cc(Cl)ccc1O [DY5]

Row | Structure (SMILES) | logKCu^2+, n = 1
6 | CCN(CC)c1ccc(/C=N/NC(N)=S)c(O)c1 [DY6] | 20.15 M^−1 and 20.15 ± 0.14 M^−1

System: B. subtilis
Assay: Antibacterial test on plates (zones of inhibition)
Assay type: cell-based
Details: 20 g/L and 10 g/L on plates, Figure 11

Row | Structure (SMILES) | antibacterial activity on B. subtilis (zones of inhibition)
7 | Cc1ccc(O)c(/C=N/NC(N)=S)c1 [DY1] | good antibacterial activities
8 | COc1ccc(/C=N/NC(N)=S)c(O)c1 [DY4] | good antibacterial activities
9 | NC(=S)N/N=C/c1cc(Cl)ccc1O [DY5] | good antibacterial activities
10 | CCN(CC)c1ccc(/C=N/NC(N)=S)c(O)c1 [DY6] | good antibacterial activities

System: not listed separately
Assay: Potentiometric titration, stability constant of complex with Zn^2+
Assay type: physicochemical
Details: 25 °C, water with 20% DMSO, KNO3
Description: as §1

Row | logKZn^2+, n = 1 | Structure (SMILES)
11 | 13.13 ± 0.21 M^−1 | Cc1ccc(O)c(/C=N/NC(N)=S)c1 [DY1]
12 | 13.53 ± 0.11 M^−1 | NC(=S)N/N=C/c1cc(O)ccc1O [DY2]
13 | 13.69 ± 0.12 M^−1 | NC(=S)N/N=C/c1cc([N+](=O)[O-])ccc1O [DY3]
14 | 13.56 ± 0.17 M^−1 | COc1ccc(/C=N/NC(N)=S)c(O)c1 [DY4]
15 | 12.51 ± 0.20 M^−1 | NC(=S)N/N=C/c1cc(Cl)ccc1O [DY5]

Row | Structure (SMILES) | logKZn^2+, n = 1
16 | CCN(CC)c1ccc(/C=N/NC(N)=S)c(O)c1 [DY6] | 14.07 M^−1 and 14.07 ± 0.37 M^−1

System: S. aureus
Assay: Antibacterial test on plates (zones of inhibition)
Assay type: cell-based
Details: 20 g/L and 10 g/L on plates, Figure 11

Row | Structure (SMILES) | antibacterial activity on S. aureus (zones of inhibition)
17 | Cc1ccc(O)c(/C=N/NC(N)=S)c1 [DY1] | good antibacterial activities
18 | COc1ccc(/C=N/NC(N)=S)c(O)c1 [DY4] | good antibacterial activities
19 | NC(=S)N/N=C/c1cc(Cl)ccc1O [DY5] | good antibacterial activities
20 | CCN(CC)c1ccc(/C=N/NC(N)=S)c(O)c1 [DY6] | good antibacterial activities

Same assay, conditions: Table 7, Figure 12

Row | Structure (SMILES) | Concentration (bacteriostatic effect), S. aureus [µM]
21 | Cc1ccc(O)c(/C=N/NC(N)=S)c1 [DY1] | 0.02
22 | CCN(CC)c1ccc(/C=N/NC(N)=S)c(O)c1 [DY6] | 0.02

System: E. coli
Assay: Antibacterial test on plates (zones of inhibition)
Assay type: cell-based
Details: 20 g/L and 10 g/L on plates, Figure 11a

Row | Structure (SMILES) | antibacterial effect on E. coli
23 | Cc1ccc(O)c(/C=N/NC(N)=S)c1 [DY1] | do not have an antibacterial effect
24 | COc1ccc(/C=N/NC(N)=S)c(O)c1 [DY4] | do not have an antibacterial effect
25 | NC(=S)N/N=C/c1cc(Cl)ccc1O [DY5] | do not have an antibacterial effect
26 | CCN(CC)c1ccc(/C=N/NC(N)=S)c(O)c1 [DY6] | do not have an antibacterial effect

System: A549 cells
Assay: MTT cytotoxicity assay
Assay type: cell-based
Details: not given
Description: The cytotoxic effect of compounds was determined by using in vitro colorimetric MTT assay. The A549 cells were seeded into 96-well microtiter tissue culture plates with a final volume of 100 μL. After attachment for 24 h, the cells were treated with different concentrations (0.1, 1, 10, 50, and 100 μM) of thiosemicarbazone compounds in the culture medium. Eight replicate wells per concentration were used and all experiments were repeated in triplicate. The solvent control (DMSO) was also assayed in parallel. The cells were incubated for 24 h and 48 h with compounds. Then, MTT dye was added 4 h before the completion of the incubation periods. The resulting formazan crystals were separated from the medium and then dissolved in 100 μL DMSO. The absorbance at 490 nm was used to quantify the plates using ELx808 Absorbance Microplate Reader (Bio-Tek, Winooski, USA).

Row | Structure (SMILES) | effective concentration (A549 cell survival rate maintained above 80%)
27 | Cc1ccc(O)c(/C=N/NC(N)=S)c1 [DY1] | up to 100 μM
28 | NC(=S)N/N=C/c1cc([N+](=O)[O-])ccc1O [DY3] | 50 µM
29 | COc1ccc(/C=N/NC(N)=S)c(O)c1 [DY4] | up to 100 μM
30 | NC(=S)N/N=C/c1cc(Cl)ccc1O [DY5] | 50 µM
31 | CCN(CC)c1ccc(/C=N/NC(N)=S)c(O)c1 [DY6] | up to 100 μM
32 | NC(=S)N/N=C/c1ccc2c(c1)OCCO2 [DY7] | 50 µM

Same assay, conditions: 48 h co-culture

Row | Structure (SMILES) | Concentration of Compounds When 80% of Cells Survive [µM]
33 | Cc1ccc(O)c(/C=N/NC(N)=S)c1 [DY1] | <100
34 | NC(=S)N/N=C/c1cc([N+](=O)[O-])ccc1O [DY3] | <50
35 | COc1ccc(/C=N/NC(N)=S)c(O)c1 [DY4] | <100
36 | NC(=S)N/N=C/c1cc(Cl)ccc1O [DY5] | <50
37 | CCN(CC)c1ccc(/C=N/NC(N)=S)c(O)c1 [DY6] | <100
38 | NC(=S)N/N=C/c1ccc2c(c1)OCCO2 [DY7] | <50

Biological target: tyrosinase
Assay: Tyrosinase activity analysis (L-DOPA oxidation, spectrophotometry at 475 nm)
Assay type: biochemical
Details: L-DOPA method, blank control 1% DMSO; read-out: IC50 (semi-inhibitory curve, Figure 3)
Description: Tyrosinase activity was determined by spectrophotometry, as 3,4-dihydroxyphenylalanine (L-DOPA, Sigma) oxidation activity, with a modification of a reported method. In brief, the tyrosinase solution (50 µL) was gently added to 450 µL of phosphate buffer at a concentration of 0.05 M containing 50 µM samples. The pH of the solution was maintained at 6.8. Then, the mixture was incubated at 30 °C for 10 min and 500 µL of 5 mM L-DOPA solution was added. […] This intensity of the peaks was recorded based on time. The tyrosinase activity was analyzed from the initial rate. The buffer containing 1% DMSO was used as a control sample. The inhibition rate of the test solution against tyrosinase was calculated using the corresponding negative control as a reference, and an approximation of the half-inhibitory concentration (IC50) was estimated based on the concentration-enzyme inhibition rate curve.

Row | Structure (SMILES) | IC50 [µM]
39 | CCN(CC)c1ccc(/C=N/NC(N)=S)c(O)c1 [DY6] | 0.6

Same assay, conditions: L-DOPA substrate, pH 6.8, 30 °C; approximation from concentration-inhibition curve; read-out: IC50 (semi-inhibitory concentration of tyrosinase)

Row | IC50 [µM] | Structure (SMILES)
40 | 1.88 | Cc1ccc(O)c(/C=N/NC(N)=S)c1 [DY1]
41 | 9.88 | NC(=S)N/N=C/c1cc([N+](=O)[O-])ccc1O [DY3]
42 | 1.12 | COc1ccc(/C=N/NC(N)=S)c(O)c1 [DY4]
43 | 1.68 | NC(=S)N/N=C/c1cc(Cl)ccc1O [DY5]
44 | 41.2 | NC(=S)N/N=C/c1ccc2c(c1)OCCO2 [DY7]

Row | Structure (SMILES) | IC50 [µM]
45 | CCN(CC)c1ccc(/C=N/NC(N)=S)c(O)c1 [DY6] | 0.6

System: not listed separately
Assay: Potentiometric titration, stability constant of complex with Mn^2+
Assay type: physicochemical
Details: 25 °C, water with 20% DMSO, KNO3
Description: as §1

Row | logKMn^2+, n = 1 | Structure (SMILES)
46 | 13.67 ± 0.31 M^−1 | Cc1ccc(O)c(/C=N/NC(N)=S)c1 [DY1]
47 | 14.27 ± 0.17 M^−1 | NC(=S)N/N=C/c1cc(O)ccc1O [DY2]
48 | 14.48 ± 0.11 M^−1 | NC(=S)N/N=C/c1cc([N+](=O)[O-])ccc1O [DY3]
49 | 14.01 ± 0.08 M^−1 | COc1ccc(/C=N/NC(N)=S)c(O)c1 [DY4]
50 | 13.65 ± 0.16 M^−1 | NC(=S)N/N=C/c1cc(Cl)ccc1O [DY5]

Row | Structure (SMILES) | logKMn^2+, n = 1
51 | CCN(CC)c1ccc(/C=N/NC(N)=S)c(O)c1 [DY6] | 14.37 M^−1 and 14.37 ± 0.30 M^−1

System: S. aureus
Assay: Antibacterial test GB/T20944.3-2008, colony count, inhibition rate
Assay type: cell-based
Details: Staphylococcus aureus, DY6 at 1.0 µM vs control sample, read-out: inhibition effect (colony-forming bacterial units)
Description: Antibacterial performance against bacteria (E. coli, S. aureus, and B. subtilis) was determined according to GB/T20944.3-2008. The inoculation suspension of bacteria was prepared and the inoculation loop was used to conduct the bacterial inoculation on the agar board for 18–24 h at 37 ± 1 °C. The sample was dipped into the conical flask filled with experimental bacteria solution with a certain concentration. After that, the oscillation culture is conducted to the samples for specified time, and 1 mL of solution was taken, diluted and distributed onto an agar plate. All plates were incubated at 37 °C for 24 h and the colonies formed were counted. […] Qt is the bacteria-colony number of viable bacteria in the plate after antibacterial treatment or grafted PAN fibers.
Figure 13 Antibacterial effect against S. aureus: (a) control sample; (b) after treatment with DY6 ay the concentration of 1.0 µM; (c) original PAN fibers; and (d) grafted DY6–PAN fibers.

Row | Structure (SMILES) | inhibition at 1 µM [%]
52 | CCN(CC)c1ccc(/C=N/NC(N)=S)c(O)c1 [DY6] | 88.6
